Data published in patent US20250163104A1, “MACROCYCLIC IMMUNOMODULATORS” (priority 2021, published 2025).
Where a SMILES comes first, the peptide text is derived from it. Bridges are numbered along the chain shown (N, C = ends). [ ]: non-standard residue; d: D form. The star is where a group is joined. ξ: configuration not given here. Phe(4-COOH) = N[C@@H](Cc1ccc(C(=O)O)cc1)C(=O)O; Bip = N[C@@H](Cc1ccc(-c2ccccc2)cc1)C(=O)O; Phe(3-OMe) = COc1cccc(C[C@H](N)C(=O)O)c1; Orn(N3) = [N-]=[N+]=NCCC[C@H](N)C(=O)O; Phe(3-Me) = Cc1cccc(C[C@H](N)C(=O)O)c1; Dap(N3) = [N-]=[N+]=NC[C@H](N)C(=O)O; ξLys(N3) = [N-]=[N+]=NCCCCC(N)C(=O)O; Aha = [N-]=[N+]=NCC[C@H](N)C(=O)O; 4Pal = N[C@@H](Cc1ccncc1)C(=O)O; Cha = N[C@@H](CC1CCCCC1)C(=O)O; Carboxymethyl = O=C(O)C*; Orn = NCCC[C@H](N)C(=O)O; Pra = C#CC[C@H](N)C(=O)O; Dab = NCC[C@H](N)C(=O)O; Dap = NC[C@H](N)C(=O)O; Bn = c1ccc(C*)cc1; Propargyl = C#CC*

Target: T1, human PD-1 / PD-L1-Ig binding on Jurkat cell line over-expressing human PD-1 (Jurkat-PD-1) (Homo sapiens, UniProt Q15116)
T1 construct: expressed in transfected cells; host or cells: Jurkat
Assay: Jurkat-PD-1 Cell Binding High-Content Screening Assay (CBA)
Assay type: cell-based
Conditions: Jurkat HPD1_PDL1 IC50, Jurkat-PD-1 cells, PE-labeled PD-L1-Ig 20 nM final
Method in brief: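 Cell-bound PE-labeled PD-L1-Ig (20 nM final, 1 h) measured by high-content imaging after fixation and Hoechst 33342 counterstain. Compound was applied first for 2 h at 37° C. to Jurkat cells over-expressing human PD-1 in DMEM with 10% FCS.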

T1 sequence (Q15116 25-288): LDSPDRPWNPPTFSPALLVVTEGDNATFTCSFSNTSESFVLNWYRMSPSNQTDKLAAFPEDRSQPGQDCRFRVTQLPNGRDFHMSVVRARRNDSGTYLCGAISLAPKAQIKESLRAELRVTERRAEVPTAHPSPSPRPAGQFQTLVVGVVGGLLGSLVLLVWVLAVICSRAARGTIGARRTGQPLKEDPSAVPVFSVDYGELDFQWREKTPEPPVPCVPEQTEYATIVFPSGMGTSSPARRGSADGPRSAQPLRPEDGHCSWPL

Row | SMILES | IC50 [nM]
1 | CC(C)C[C@H]1NC(=O)[C@H](CCCN)NC(=O)[C@H](C(C)C)NC(=O)[C@H](Cc2ccc(-c3ccccc3)cc2)NC(=O)[C@H](C(C)C)NC(=O)[C@H](Cc2c[nH]c3ccccc23)NC(=O)[C@H](CC(=O)O)NC(=O)[C@H](Cc2ccc(OCC(=O)O)cc2)NC(=O)[C@H](CN)NC(=O)CSC[C@@H](C(=O)N[C@@H](C)C(N)=O)NC(=O)[C@H]([C@@H](C)O)NC(=O)[C@H](C(C)C)NC(=O)[C@H](CC2CCCCC2)NC(=O)[C@H](Cc2ccc(OCc3ccccc3)cc2)NC1=O [Compound 1531] ({CH2CO}-[Dap]Y(Carboxymethyl)DWV[Bip]V[Orn][dL]Y(Bn)[Cha]VTCA-NH2; thioether N-14) | 707
2 | CC(C)C[C@H]1NC(=O)[C@H](CCCN)NC(=O)[C@H](C(C)C)NC(=O)[C@H](Cc2ccc(-c3ccccc3)cc2)NC(=O)[C@H](C(C)C)NC(=O)[C@H](Cc2c[nH]c3ccccc23)NC(=O)[C@H](CC(=O)O)NC(=O)[C@H](Cc2ccc(OCC(=O)O)cc2)NC(=O)[C@H](CN)NC(=O)CSC[C@@H](C(=O)N[C@@H](C)C(N)=O)NC(=O)[C@H]([C@@H](C)O)NC(=O)[C@H](Cc2ccc(OCc3ccccc3)cc2)NC(=O)[C@H](CC2CCCCC2)NC(=O)[C@H](CCN)NC1=O [Compound 1532] ({CH2CO}-[Dap]Y(Carboxymethyl)DWV[Bip]V[Orn][dL][Dab][Cha]Y(Bn)TCA-NH2; thioether N-14) | 111
3 | CC(C)C[C@H]1NC(=O)[C@H](CCCN)NC(=O)[C@H](C(C)C)NC(=O)[C@H](Cc2ccc(-c3ccccc3)cc2)NC(=O)[C@H](C(C)C)NC(=O)[C@H](Cc2c[nH]c3ccccc23)NC(=O)[C@H](CC(=O)O)NC(=O)[C@H](Cc2ccc(OCC(=O)O)cc2)NC(=O)[C@H](CN)NC(=O)CSC[C@@H](C(=O)N[C@@H](C)C(=O)N[C@@H](Cc2ccc(OCc3ccccc3)cc2)C(N)=O)NC(=O)[C@H]([C@@H](C)O)NC(=O)[C@H](C(C)C)NC(=O)[C@H](CC2CCCCC2)NC(=O)[C@H](CCN)NC1=O [Compound 1535] | 128

Same assay, conditions: Jurkat-PD-1 cells, PE-labeled PD-L1-Ig 20 nM final; read-out: Jurkat HPD1_PDL1 IC50

Row | SMILES | IC50 [nM]
4 | C#CCOc1ccc(C[C@@H]2NC(=O)[C@H](CN)NC(=O)CSC[C@@H](C(=O)N[C@@H](CCN=[N+]=[N-])C(N)=O)NC(=O)[C@H]([C@@H](C)O)NC(=O)[C@H](C(C)C)NC(=O)[C@H](CC3CCCCC3)NC(=O)[C@H](CCN)NC(=O)[C@@H](CC(C)C)NC(=O)[C@H](CCCN)NC(=O)[C@H](CCC(=O)O)NC(=O)[C@H](Cc3ccc(-c4ccccc4)cc3)NC(=O)[C@H](C(C)C)NC(=O)[C@H](Cc3c[nH]c4ccccc34)NC(=O)[C@H](CC(=O)O)NC2=O)cc1 [Compound 1536] ({CH2CO}-[Dap]Y(Propargyl)DWV[Bip]E[Orn][dL][Dab][Cha]VTC[Aha]-NH2; thioether N-14) | 59.3
5 | C#CCOc1ccc(C[C@@H]2NC(=O)[C@H](CN)NC(=O)CSC[C@@H](C(=O)N[C@@H](CCCN=[N+]=[N-])C(N)=O)NC(=O)[C@H]([C@@H](C)O)NC(=O)[C@H](C(C)C)NC(=O)[C@H](CC3CCCCC3)NC(=O)[C@H](CCN)NC(=O)[C@@H](CC(C)C)NC(=O)[C@H](CCCN)NC(=O)[C@H](CCC(=O)O)NC(=O)[C@H](Cc3ccc(-c4ccccc4)cc3)NC(=O)[C@H](C(C)C)NC(=O)[C@H](Cc3c[nH]c4ccccc34)NC(=O)[C@H](CC(=O)O)NC2=O)cc1 [Compound 1537] ({CH2CO}-[Dap]Y(Propargyl)DWV[Bip]E[Orn][dL][Dab][Cha]VTC[Orn(N3)]-NH2; thioether N-14) | 101
6 | C#CCOc1ccc(C[C@@H]2NC(=O)[C@H](CN)NC(=O)CSC[C@@H](C(=O)NC(CCCCN=[N+]=[N-])C(N)=O)NC(=O)[C@H]([C@@H](C)O)NC(=O)[C@H](C(C)C)NC(=O)[C@H](CC3CCCCC3)NC(=O)[C@H](CCN)NC(=O)[C@@H](CC(C)C)NC(=O)[C@H](CCCN)NC(=O)[C@H](CCC(=O)O)NC(=O)[C@H](Cc3ccc(-c4ccccc4)cc3)NC(=O)[C@H](C(C)C)NC(=O)[C@H](Cc3c[nH]c4ccccc34)NC(=O)[C@H](CC(=O)O)NC2=O)cc1 (stereo partly drawn) [Compound 1538] ({CH2CO}-[Dap]Y(Propargyl)DWV[Bip]E[Orn][dL][Dab][Cha]VTC[ξLys(N3)]-NH2; thioether N-14) | 135
7 | C#CC[C@H](NC(=O)[C@@H]1CSCC(=O)N[C@@H](CN)C(=O)N[C@@H](CN=[N+]=[N-])C(=O)N[C@@H](CC(=O)O)C(=O)N[C@@H](Cc2c[nH]c3ccccc23)C(=O)N[C@@H](C(C)C)C(=O)N[C@@H](Cc2ccc(-c3ccccc3)cc2)C(=O)N[C@@H](CCC(=O)O)C(=O)N[C@@H](CCCN)C(=O)N[C@H](CC(C)C)C(=O)N[C@@H](CCN)C(=O)N[C@@H](CC2CCCCC2)C(=O)N[C@@H](C(C)C)C(=O)N[C@@H]([C@@H](C)O)C(=O)N1)C(N)=O [Compound 1539] ({CH2CO}-[Dap][Dap(N3)]DWV[Bip]E[Orn][dL][Dab][Cha]VTC[Pra]-NH2; thioether N-14) | 85.7
8 | C#CC[C@H](NC(=O)[C@@H]1CSCC(=O)N[C@@H](CN)C(=O)N[C@@H](CCN=[N+]=[N-])C(=O)N[C@@H](CC(=O)O)C(=O)N[C@@H](Cc2c[nH]c3ccccc23)C(=O)N[C@@H](C(C)C)C(=O)N[C@@H](Cc2ccc(-c3ccccc3)cc2)C(=O)N[C@@H](CCC(=O)O)C(=O)N[C@@H](CCCN)C(=O)N[C@H](CC(C)C)C(=O)N[C@@H](CCN)C(=O)N[C@@H](CC2CCCCC2)C(=O)N[C@@H](C(C)C)C(=O)N[C@@H]([C@@H](C)O)C(=O)N1)C(N)=O [Compound 1540] ({CH2CO}-[Dap][Aha]DWV[Bip]E[Orn][dL][Dab][Cha]VTC[Pra]-NH2; thioether N-14) | 87.4
9 | COc1cccc(C[C@@H]2NC(=O)[C@H](CC(=O)O)NC(=O)[C@H](Cc3ccc(C(=O)O)cc3)NC(=O)[C@H](Cc3ccc(OCC(=O)O)cc3)NC(=O)CSC[C@@H](C(=O)N[C@@H](C)C(N)=O)NC(=O)[C@H]([C@@H](C)O)NC(=O)[C@H](C(C)C)NC(=O)[C@H](CC3CCCCC3)NC(=O)[C@H](CCN)NC(=O)[C@@H](CC(C)C)NC(=O)[C@H](CCCN)NC(=O)[C@H](CCC(=O)O)NC(=O)[C@H](Cc3ccc(-c4ccccc4)cc3)NC(=O)[C@H](C(C)C)NC2=O)c1 [Compound 1541] | 16.6
10 | COc1cccc(C[C@@H]2NC(=O)[C@H](CC(=O)O)NC(=O)[C@H](Cc3ccc(OCC(=O)O)cc3)NC(=O)[C@H](Cc3ccccc3)NC(=O)CSC[C@@H](C(=O)N[C@@H](C)C(N)=O)NC(=O)[C@H]([C@@H](C)O)NC(=O)[C@H](C(C)C)NC(=O)[C@H](CC3CCCCC3)NC(=O)[C@H](CCN)NC(=O)[C@@H](CC(C)C)NC(=O)[C@H](CCCN)NC(=O)[C@H](CCC(=O)O)NC(=O)[C@H](Cc3ccc(-c4ccccc4)cc3)NC(=O)[C@H](C(C)C)NC2=O)c1 [Compound 1542] ({CH2CO}-FY(Carboxymethyl)D[Phe(3-OMe)]V[Bip]E[Orn][dL][Dab][Cha]VTCA-NH2; thioether N-14) | 18.6
11 | COc1cccc(C[C@@H]2NC(=O)[C@H](CC(=O)O)NC(=O)[C@H](Cc3ccc(O)cc3)NC(=O)[C@H](Cc3ccncc3)NC(=O)CSC[C@@H](C(=O)N[C@@H](C)C(N)=O)NC(=O)[C@H]([C@@H](C)O)NC(=O)[C@H](C(C)C)NC(=O)[C@H](CC3CCCCC3)NC(=O)[C@H](CCN)NC(=O)[C@@H](CC(C)C)NC(=O)[C@H](CCCN)NC(=O)[C@H](CCC(=O)O)NC(=O)[C@H](Cc3ccc(-c4ccccc4)cc3)NC(=O)[C@H](C(C)C)NC2=O)c1 [Compound 1543] | 27.7
12 | COc1cccc(C[C@@H]2NC(=O)[C@H](CC(=O)O)NC(=O)[C@H](Cc3ccc(OCC(=O)O)cc3)NC(=O)[C@H](Cc3ccncc3)NC(=O)CSC[C@@H](C(=O)N[C@@H](C)C(N)=O)NC(=O)[C@H]([C@@H](C)O)NC(=O)[C@H](C(C)C)NC(=O)[C@H](CC3CCCCC3)NC(=O)[C@H](CCN)NC(=O)[C@@H](CC(C)C)NC(=O)[C@H](CCCN)NC(=O)[C@H](CCC(=O)O)NC(=O)[C@H](Cc3ccc(-c4ccccc4)cc3)NC(=O)[C@H](C(C)C)NC2=O)c1 [Compound 1544] | 10.5
13 | COc1cccc(C[C@@H]2NC(=O)[C@H](CC(=O)O)NC(=O)[C@H](Cc3ccc(OCC(=O)O)cc3)NC(=O)[C@H](Cc3cccnc3)NC(=O)CSC[C@@H](C(=O)N[C@@H](C)C(N)=O)NC(=O)[C@H]([C@@H](C)O)NC(=O)[C@H](C(C)C)NC(=O)[C@H](CC3CCCCC3)NC(=O)[C@H](CCN)NC(=O)[C@@H](CC(C)C)NC(=O)[C@H](CCCN)NC(=O)[C@H](CCC(=O)O)NC(=O)[C@H](Cc3ccc(-c4ccccc4)cc3)NC(=O)[C@H](C(C)C)NC2=O)c1 [Compound 1545] | 17.8
14 | COc1cccc(C[C@@H]2NC(=O)[C@H](CC(=O)O)NC(=O)[C@H](Cc3ccncc3)NC(=O)[C@H](CN)NC(=O)CSC[C@@H](C(=O)N[C@@H](C)C(N)=O)NC(=O)[C@H]([C@@H](C)O)NC(=O)[C@H](C(C)C)NC(=O)[C@H](CC3CCCCC3)NC(=O)[C@H](CCN)NC(=O)[C@@H](CC(C)C)NC(=O)[C@H](CCCN)NC(=O)[C@H](CCC(=O)O)NC(=O)[C@H](Cc3ccc(-c4ccccc4)cc3)NC(=O)[C@H](C(C)C)NC2=O)c1 [Compound 1546] ({CH2CO}-[Dap][4Pal]D[Phe(3-OMe)]V[Bip]E[Orn][dL][Dab][Cha]VTCA-NH2; thioether N-14) | 9
15 | CC[C@H](C)[C@@H]1NC(=O)[C@H](Cc2ccc(-c3ccccc3)cc2)NC(=O)[C@H](C(C)C)NC(=O)[C@H](Cc2cccc(C)c2)NC(=O)[C@H](CC(=O)O)NC(=O)[C@H](Cc2ccc(C(=O)O)cc2)NC(=O)[C@H](Cc2ccncc2)NC(=O)CSC[C@@H](C(N)=O)NC(=O)[C@H]([C@@H](C)O)NC(=O)[C@H](C(C)C)NC(=O)[C@H](CC2CCCCC2)NC(=O)[C@H](CCN)NC(=O)[C@@H](CC(C)C)NC(=O)[C@H](CCCN)NC1=O [Compound 1547] ({CH2CO}-[4Pal][Phe(4-COOH)]D[Phe(3-Me)]V[Bip]I[Orn][dL][Dab][Cha]VTC-NH2; thioether N-14) | 15.9
